Source: patent US20070128217A1 (priority 2003, published 2007)

Assays:
[1] = system: rabbit serum obtained by immunizing a rabbit with the SARS-CoV strain Frankfurt 1; type: binding; set-up: Binding of a rabbit serum to linear peptides / Binding of a rabbit serum to looped peptides / Rabbit serum linear peptides / Rabbit serum looped peptides / Binding of a rabbit serum to linear peptides of protein N of SARS-CoV Urbani (Rabbit serum linear peptides) / Binding of a rabbit serum to looped/cyclic peptides of protein N of SARS-CoV Urbani (Rabbit serum looped peptides): unit not given here
[2] = system: control sera (pooled serum of ten healthy LUMC hospital workers; commercial negative donor pooled serum from the Dutch bloodbank); type: binding, human
[3] = system: recombinant human anti-SARS-CoV antibody 03-018; type: binding; set-up: Binding of antibody 03-018 to linear peptides of the N protein of SARS-CoV Urbani / Binding of antibody 03-018 to looped/cyclic peptides of the N protein of SARS-CoV Urbani: unit not given here
[4] = system: antibodies in sera from SARS patients (sera 1a, 1b, 2, 6, 37, 62, London, SARS-yellow, SARS-green); type: binding, human; set-up: Binding of serum 6 to linear peptides of protein X1 of SARS-CoV Urbani / Binding of serum 37 to linear peptides of protein X1 of SARS-CoV Urbani / Binding of serum 6 to looped/cyclic peptide (PEPSCAN-ELISA) / Binding of serum 37 to looped/cyclic peptide (PEPSCAN-ELISA) / Binding of serum 37 to looped/cyclic peptides of protein X1 of SARS-CoV Urbani / Binding of serum 6 to linear peptides of protein X2 / Binding of serum 37 to linear peptides of protein X2 / Binding of serum 37 to looped/cyclic peptides of protein X2 of SARS-CoV Urbani / Binding of serum 6 to linear peptides of protein M of SARS-CoV Urbani / Binding of serum 37 to linear peptides of protein M of SARS-CoV Urbani / Binding of serum 6 to looped/cyclic peptides of protein M of SARS-CoV Urbani / Binding of serum 37 to looped/cyclic peptides of protein M of SARS-CoV Urbani / Binding of serum 6 to linear peptides of protein X3 of SARS-CoV Urbani / Binding of serum 37 to linear peptides of protein X3 of SARS-CoV Urbani / Binding of serum 37 to looped/cyclic peptides of protein X3 of SARS-CoV Urbani / Binding of serum 6 to linear peptides of protein X4 of SARS-CoV Urbani / Binding of serum 37 to linear peptides of protein X4 of SARS-CoV Urbani / Binding of serum 37 to looped/cyclic peptides of protein X4 of SARS-CoV Urbani / Binding of serum 6 to linear peptides of protein X5 of SARS-CoV Urbani / Binding of serum 37 to linear peptides of protein X5 of SARS-CoV Urbani / Binding of serum 37 to looped/cyclic peptides of protein X5 of SARS-CoV Urbani / Binding of serum 6 to linear peptides of protein N of SARS-CoV Urbani / Binding of serum 37 to linear peptides of protein N of SARS-CoV Urbani / Binding of serum 6 to linear peptide (PEPSCAN-ELISA) / Binding of serum 1a to looped/cyclic peptides of protein N of SARS-CoV Urbani / Binding of serum 1b to looped/cyclic peptides of protein N of SARS-CoV Urbani / Binding of serum 2 to looped/cyclic peptides of protein N of SARS-CoV Urbani / Binding of serum 6 to looped/cyclic peptides of protein N of SARS-CoV Urbani / Binding of serum 37 to looped/cyclic peptides of protein N of SARS-CoV Urbani / Binding of serum 62 to looped/cyclic peptides of protein N of SARS-CoV Urbani / Binding of serum London to looped/cyclic peptides of protein N of SARS-CoV Urbani / Binding of serum SARS-green to looped/cyclic peptides of protein N of SARS-CoV Urbani: unit not given here

Sequence | Binding of a rabbit serum to linear peptides of protein N of SARS-CoV Urbani (Rabbit serum linear peptides) [1] | Binding of a rabbit serum to looped/cyclic peptides of protein N of SARS-CoV Urbani (Rabbit serum looped peptides) [1] | Control Serum Blood-Bank Looped peptides [2] | Control serum Blood-bank linear peptides [2] | Control serum LUMC linear peptides [2] | Control serum LUMC looped peptides [2] | Binding of antibody 03-018 to linear peptides of the N protein of SARS-CoV Urbani [3] | Binding of antibody 03-018 to looped/cyclic peptides of the N protein of SARS-CoV Urbani [3] | Binding of serum 1a to linear peptides of protein N of SARS-CoV Urbani [4] | Binding of serum 1a to looped/cyclic peptides of protein N of SARS-CoV Urbani [4] | Binding of serum 1b to linear peptides of protein N of SARS-CoV Urbani [4] | Binding of serum 1b to looped/cyclic peptides of protein N of SARS-CoV Urbani [4] | Binding of serum 2 to linear peptides of protein N of SARS-CoV Urbani [4] | Binding of serum 2 to looped/cyclic peptides of protein N of SARS-CoV Urbani [4] | Binding of serum 6 to linear peptides of protein N of SARS-CoV Urbani [4] | Binding of serum 6 to looped/cyclic peptides of protein N of SARS-CoV Urbani [4] | Binding of serum 37 to linear peptides of protein N of SARS-CoV Urbani [4] | Binding of serum 37 to looped/cyclic peptides of protein N of SARS-CoV Urbani [4] | Binding of serum 62 to linear peptides of protein N of SARS-CoV Urbani [4] | Binding of serum 62 to looped/cyclic peptides of protein N of SARS-CoV Urbani [4] | further results
HWPQIAQFAPSASAF | 0.1 | 0.7 | 0.8 | 0.8 | 0.7 | 0.8 | 0.1 | 0.2 | 0.3 | 0.5 | 0.2 | 0.3 | 0.2 | 0.5 | 0.2 | 0.4 | 0.8 | 0.8 | 0.7 | 1.0 | Binding of serum London to linear peptides of protein N of SARS-CoV Urbani [4]: 0.6; Binding of serum London to looped/cyclic peptides of protein N of SARS-CoV Urbani [4]: 0.6; Binding of serum SARS-green to linear peptides of protein N of SARS-CoV Urbani [4]: 0.4; Binding of serum SARS-green to looped/cyclic peptides of protein N of SARS-CoV Urbani [4]: 0.6; Binding of serum SARS-yellow to linear peptides of protein N of SARS-CoV Urbani [4]: 0.8; Binding of serum SARS-yellow to looped/cyclic peptides of protein N of SARS-CoV Urbani [4]: 0.6
IAQFAPSASAFFGMS | 0.2 | 0.4 | 0.8 | 0.7 | 0.6 | 0.6 | 0.1 | 0.3 | 0.2 | 0.4 | 0.1 | 0.2 | 0.1 | 0.4 | 0.1 | 0.3 | 0.6 | 0.7 | 0.5 | 0.6 | Binding of serum London to linear peptides of protein N of SARS-CoV Urbani [4]: 0.4; Binding of serum London to looped/cyclic peptides of protein N of SARS-CoV Urbani [4]: 0.4; Binding of serum SARS-green to linear peptides of protein N of SARS-CoV Urbani [4]: 0.2; Binding of serum SARS-green to looped/cyclic peptides of protein N of SARS-CoV Urbani [4]: 0.4; Binding of serum SARS-yellow to linear peptides of protein N of SARS-CoV Urbani [4]: 0.6; Binding of serum SARS-yellow to looped/cyclic peptides of protein N of SARS-CoV Urbani [4]: 0.4
IGMEVTPSGTWLTYH | 0.1 | 0.6 | 0.8 | 0.8 | 0.6 | 0.8 | 0.1 | 0.2 | 0.2 | 0.5 | 0.1 | 0.3 | 0.1 | 0.5 | 0.2 | 0.3 | 0.6 | 0.8 | 0.6 | 1.0 | Binding of serum London to linear peptides of protein N of SARS-CoV Urbani [4]: 0.5; Binding of serum London to looped/cyclic peptides of protein N of SARS-CoV Urbani [4]: 0.6; Binding of serum SARS-green to linear peptides of protein N of SARS-CoV Urbani [4]: 0.3; Binding of serum SARS-green to looped/cyclic peptides of protein N of SARS-CoV Urbani [4]: 0.7; Binding of serum SARS-yellow to linear peptides of protein N of SARS-CoV Urbani [4]: 0.5; Binding of serum SARS-yellow to looped/cyclic peptides of protein N of SARS-CoV Urbani [4]: 0.5
